In one test the target is T1, Human GPR120 short form (Homo sapiens, UniProt Q5NUL3).
T1 construct: expressed in transfected cells
T1 sequence (Q5NUL3 1-361): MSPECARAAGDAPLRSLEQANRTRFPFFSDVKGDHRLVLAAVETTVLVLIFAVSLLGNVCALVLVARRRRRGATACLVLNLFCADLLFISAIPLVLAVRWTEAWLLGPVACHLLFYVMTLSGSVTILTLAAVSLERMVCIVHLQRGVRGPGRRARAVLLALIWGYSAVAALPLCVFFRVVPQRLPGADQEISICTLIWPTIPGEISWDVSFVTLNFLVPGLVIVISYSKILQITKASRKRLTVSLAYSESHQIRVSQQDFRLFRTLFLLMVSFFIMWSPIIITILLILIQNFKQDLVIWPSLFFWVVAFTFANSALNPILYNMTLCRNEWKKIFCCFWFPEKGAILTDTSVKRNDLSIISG
The test can be described thus: Human GPR120 calcium flux assay (FLIPR), Procedure Calcium A. The note with it: HEK-293 cells expressing human GPR120 short form, 2500 cells/well; read-out: GPR120 Ca2+ Assay A EC50. The format is cell-based. In short, it runs like this:
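HEK293 cells stably expressing the short isoform (NM_001195755.1), 2500/well, starved 1 h, then loaded with Fluo-4 NW plus probenecid (30 min 37 °C, 15 min RT). Compound solutions 0.012–100 μM, 0.2% DMSO final; FLIPR read 300 s after addition. EC50 from Fmax−Fmin fitted to variable-slope sigmoid (Hill <2).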
A general note: Calcium assays in cells follow changes in intracellular calcium, usually with a dye or a luminescent sensor.

Test [1] deals with T2, long form of human GPR120 (Homo sapiens, UniProt Q5NUL3).
T2 construct: host or cells: PathHunter CHO-K1 GPR120 β-Arrestin Cell Line
T2 sequence (Q5NUL3 1-377 isoform Q5NUL3-1): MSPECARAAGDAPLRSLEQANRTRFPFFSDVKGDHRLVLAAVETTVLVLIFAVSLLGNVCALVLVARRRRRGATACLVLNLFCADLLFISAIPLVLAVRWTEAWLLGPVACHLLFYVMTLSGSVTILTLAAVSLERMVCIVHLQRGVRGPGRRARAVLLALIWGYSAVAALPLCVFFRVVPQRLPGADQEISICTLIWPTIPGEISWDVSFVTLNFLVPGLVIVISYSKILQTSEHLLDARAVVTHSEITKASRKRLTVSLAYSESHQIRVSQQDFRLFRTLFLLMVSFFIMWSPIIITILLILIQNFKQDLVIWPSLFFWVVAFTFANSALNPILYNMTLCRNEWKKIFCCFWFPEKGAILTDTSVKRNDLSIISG
T2 sequence (P32121 whole entry partner): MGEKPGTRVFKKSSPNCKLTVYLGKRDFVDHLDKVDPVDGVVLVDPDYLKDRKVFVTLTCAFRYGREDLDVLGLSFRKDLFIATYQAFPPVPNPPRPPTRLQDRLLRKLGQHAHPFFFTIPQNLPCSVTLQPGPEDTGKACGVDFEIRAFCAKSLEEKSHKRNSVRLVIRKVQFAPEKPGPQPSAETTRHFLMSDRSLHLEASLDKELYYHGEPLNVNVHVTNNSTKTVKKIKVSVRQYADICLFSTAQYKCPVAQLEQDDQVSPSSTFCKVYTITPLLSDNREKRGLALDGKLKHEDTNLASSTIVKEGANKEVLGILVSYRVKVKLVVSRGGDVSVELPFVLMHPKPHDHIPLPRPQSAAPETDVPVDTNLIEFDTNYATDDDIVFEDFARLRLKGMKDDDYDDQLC
The experiment in a line: Human GPR120 DiscoveRx PathHunter Beta-Arrestin assay, Procedure β-arrestin A. It counts as cell-based. Conditions: PathHunter CHO-K1 GPR120 β-Arrestin cell line, 3000 cells per well, read-out: hGPR120 β-arrestin A EC50. The text has this: The binding of an agonist (medium/long chain fatty acids or small molecule agonists) to the G-protein-coupled receptor GPR120 activates phospholipase C, leading to release of intracellular Ca^+2 through the generation of inositol 1,4,5-trisphosphate (InsP3 or IP3). GPR120 activation can also trigger intracellular signaling via recruitment of Beta-Arrestin. In the present method, agonist-induced activation of the human GPR120 receptor is monitored through the use of PathHunter CHO-K1 GPR120 Beta-Arrestin Cell Line engineered by DiscoveRx, as detailed below. The cell lines are designed to co-express both the ProLink/Enzyme Donor (PK)-tagged GPCR and the Enzyme […] (EA)-tagged Beta-Arrestin fusion proteins. Upon GPR120 receptor stimulation/activation, the EA-tagged Beta-Arrestin portion is translocated to the tagged receptor, where the two enzyme fragments are brought within close proximity. Under these conditions, these fragments can interact and form an active Beta-gal enzyme complex through Enzyme Fragment Complementation (EFC). This active Beta-gal complex can enzymatically hydrolyse the substrate to produce a detectable light signal; therefore, activation as a function of agonist concentration can be expressed as an EC50 value to determine relative compound activities. This in vitro assay therefore serves to assess compound agonist activity of the GPR120. Procedure β-Arrestin A: In Procedure β-arrestin A, the cell used were PathHunter CHO-K1 GPR120 β-Arrestin Cell Line, expressing the long form of human GPR120 (Genbank accession number NM 181745), with 3000 cells per well. Procedure β-Arrestin B: In Procedure 3-arrestin B the cells used were PathHunter CHO-K1 GPR120S β-Arrestin Cell Line, expressing the short form of the GPR120 receptor (Accession #NM_181745), with 5000 cells/well. Assay Procedure:
The selected CHO-K1 GPR120 β-Arrestin cells were cultured in Ham's F12 media supplemented with 10% fetal bovine serum (FBS), 1% Glutamine, lx p/s, 800 μg/mL G418 and 300 μg/mL Hygromycin B (for selection). Cell stocks were maintained and grown in a sub-confluent state using standard cell culture procedures. The day before the experiment, the cells were harvested with non-enzymatic cell dissociation buffer and re-suspended in complete growth media at the desired concentration. A Corning 384-plate was then seeded with the proper number of cells in a volume of 25 μL, per well. The seeded plates were incubated overnight at 37° C.
On the day of the experiment, the Assay Buffer containing (a) HBSS with Ca^++ and Mg^++, (b) 20 mM HEPES, and (c) 0.1% BSA stabilizer (pH 7.4) was prepared. The growth medium was gently removed from the cell plates and 20 μL of Assay Buffer added to each well. The plate was then incubated at 37° C. for 60 min. Test compounds were serially diluted in Assay Buffer to desired concentrations (more particularly to one or more of the following μM concentrations: 25, 12.5, 6.25, 3.125, 1.5625, 0.78125, 0.390625, 0.1953125, 0.09765625, 0.048828125, 0.024414063, 0.012207031). Five μL of compound dilution was then added to each well and the plate incubated at 37° C. for 90 min. The detection reagents were prepared according to the manufacture's instruction. Twelve μL of the detection reagents were added to each well and the plate incubated at room temperature for 60 min.
The plates were read on an EnVision instrument, using Protocol name: Luminescence, Plate type: 384 Costar, Measurement height: 3 mm, Measurement time: 1 s, Aperture: 384 Plate aperture. The % activity relative to the positive control was calculated using the following equation:
The % Activity values were plotted versus the concentration of test compound and fitted to a sigmoidal dose-response curve with a Hill slope=1 (fixed value) using nonlinear regression with GraphPad Prism 5.0 to calculate the EC50 values. […]

Our source for the EC50 values is patent publication US9067898B1, “Isothiazole derivatives as GPR120 agonists for the treatment of type II diabetes” (Janssen Pharmaceutica NV, priority 2014, dated 2015).

By EC50 is commonly meant the concentration at which the effect is half-maximal.

Turning to `Cc1c(CCC(=O)O)ccc(OCc2c(Cl)nsc2-c2ccccc2)c1C` [Cpd 101, 3-[4-[(3-chloro-5-phenyl-1,2-thiazol-4-yl)methoxy]-2,3-dimethylphenyl]propanoic acid], the values for the half-maximal effective concentration (EC50) (at Human GPR120 short form; in test [1]) were 76 nM and 189 nM, respectively.
For `CCc1ccc(-c2snc(Cl)c2COc2c(F)cc(CCCO)cc2F)cc1` [Cpd 183, 3-(4-[[3-chloro-5-(4-ethylphenyl)-1,2-thiazol-4-yl]methoxy]-3,5-difluorophenyl)propan-1-ol] the same measures were 300 nM and 52 nM.
On the same counts, the results for `O=C(O)CCc1ccc(OCc2c(-c3ccc(Cl)cc3)nsc2C(F)(F)F)c(Br)c1` [Cpd 69, 3-(3-bromo-4-[[3-(4-chlorophenyl)-5-(trifluoromethyl)-1,2-thiazol-4-yl]methoxy]phenyl)propanoic acid] are 31 nM and 83 nM.
For `Cc1c(CCC(=O)O)ccc(OCc2csnc2-c2ccc(Cl)cc2)c1C` [Cpd 166, 3-(4-((3-(4-chlorophenyl)isothiazol-4-yl)methoxy)-2,3-dimethylphenyl)propanoic acid] the same measures were 217 nM and 1340 nM.
As for `CCc1ccc(-c2snc(Cl)c2COc2ccc(CCCO)c(F)c2F)cc1` [Cpd 83, 3-(4-((3-chloro-5-(4-ethylphenyl)isothiazol-4-yl)methoxy)-2,3-difluorophenyl)propan-1-ol], the half-maximal effective concentration (EC50) on Human GPR120 short form amounted to 56 nM; in test [1], 54 nM.
For `O=C(O)CCc1ccc(OCc2c(Cl)nsc2-c2ccc(Cl)cc2)c(F)c1F` [Cpd 72, 3-(4-[[3-chloro-5-(4-chlorophenyl)-1,2-thiazol-4-yl]methoxy]-2,3-difluorophenyl)propanoic acid] the same measures were 39 nM and 103 nM.
On the same counts, the results for `CCc1ccc(-c2nsc(C(F)(F)F)c2COc2ccc(CCC(=O)O)c(C)c2C)cc1` [Cpd 127, 3-(4-((3-(4-ethylphenyl)-5-(trifluoromethyl)isothiazol-4-yl)methoxy)-2,3-dimethylphenyl)propanoic acid] are 122 nM and 178 nM.
On the same counts, the results for `CCc1ccc(-c2ccsc2COc2ccc(CCCO)c(F)c2F)cc1` [Cpd 4, 3-(4-[[3-(4-ethylphenyl)thiophen-2-yl]methoxy]-2,3-difluorophenyl)propan-1-ol] are 59 nM and 261 nM.
On to `O=C(O)CCc1ccc(OCc2csnc2-c2ccc(Br)cc2)c(F)c1F` [Cpd 187, 3-(4-((3-(4-bromophenyl)isothiazol-4-yl)methoxy)-2,3-difluorophenyl)propanoic acid], for which the concentration giving a half-maximal response (EC50) at Human GPR120 short form was found to be 305 nM; in test [1] it was 889 nM.
For the compound `CCc1ccc(-c2snc(Cl)c2COc2c(F)cc(CCCO)c(F)c2F)cc1` [Cpd 140, 3-(4-((3-chloro-5-(4-ethylphenyl)isothiazol-4-yl)methoxy)-2,3,5-trifluorophenyl)propan-1-ol], the concentration for a half-maximal effect (EC50) on Human GPR120 short form came out at 139 nM; in test [1], 67 nM.
For `CCc1ccc(-c2cc(F)sc2COc2ccc(CCC(=O)O)c(F)c2F)cc1` [Cpd 12, 3-(4-[[3-(4-ethylphenyl)-5-fluorothiophen-2-yl]methoxy]-2,3-difluorophenyl)propanoic acid] the same measures were 135 nM and 125 nM.
On the same counts, the results for `CCc1ccc(-c2cscc2COc2c(F)cc(CCC(=O)O)cc2F)cc1` [Cpd 53, 3-(4-((4-(4-ethylphenyl)thiophen-3-yl)methoxy)-3,5-difluorophenyl)propanoic acid] are 191 nM and 668 nM.
For `O=C(O)CCc1cc(F)c(OCc2c(C3=CCCC3)csc2C(F)(F)F)c(F)c1` [Cpd 31, 3-(4-((4-(cyclopent-1-en-1-yl)-2-(trifluoromethyl)thiophen-3-yl)methoxy)-3,5-difluorophenyl)propanoic acid], the results for the half-maximal effective concentration (EC50) (on Human GPR120 short form; in test [1]) were 46 nM and 503 nM, respectively.
For `Cc1c(CCC(=O)O)ccc(OCc2csnc2-c2ccc(Br)cc2)c1C` [Cpd 170, 3-(4-((3-(4-bromophenyl)isothiazol-4-yl)methoxy)-2,3-dimethylphenyl)propanoic acid] the same measures were 225 nM and 813 nM.
For `CCc1ccc(-c2cscc2COc2ccc(CCC(=O)O)c(F)c2F)cc1` [Cpd 43, 3-(4-((4-(4-ethylphenyl)thiophen-3-yl)methoxy)-2,3-difluorophenyl)propanoic acid] the same measures were 147 nM and 591 nM.
For `COc1nsc(-c2ccc(C)cc2F)c1COc1c(F)cc(CCC(=O)O)cc1F` [Cpd 123, 3-(3,5-difluoro-4-[[5-(2-fluoro-4-methylphenyl)-3-methoxy-1,2-thiazol-4-yl]methoxy]phenyl) propanoic acid] the same measures were 111 nM and 303 nM.
For `Cc1ccc(-c2snc(C)c2COc2c(F)cc(CCC(=O)O)cc2F)c(F)c1` [Cpd 84, 3-(3,5-difluoro-4-[[5-(2-fluoro-4-methylphenyl)-3-methyl-1,2-thiazol-4-yl]methoxy]phenyl) propanoic acid], the concentration for a half-maximal effect (EC50) turned out to be 56 nM on Human GPR120 short form and 119 nM in test [1].
For `CCc1ccc(-c2nsc(C(F)(F)F)c2COc2ccc(CCCO)c(F)c2F)cc1` [Cpd 139, 3-(4-((3-(4-ethylphenyl)-5-(trifluoromethyl)isothiazol-4-yl)methoxy)-2,3-difluorophenyl)propan-1-ol] the same measures were 138 nM and 77 nM.
On the same counts, the results for `O=C(O)CCc1cc(F)c(OCc2c(-c3c(F)cc(Cl)cc3F)nsc2C(F)(F)F)c(F)c1` [Cpd 96, 3-(4-((3-(4-chloro-2,6-difluorophenyl)-5-(trifluoromethyl)isothiazol-4-yl)methoxy)-3,5-difluorophenyl)propanoic acid] are 73 nM and 287 nM.
For `Cc1cc(OCc2c(-c3ncc(Cl)cc3F)nsc2C(F)(F)F)c(F)cc1CCC(=O)O` [Cpd 206, 3-(4-((3-(5-chloro-3-fluoropyridin-2-yl)-5-(trifluoromethyl)isothiazol-4-yl)methoxy)-5-fluoro-2-methylphenyl)propanoic acid] the same measures were 551 nM and 540 nM.
For `CCc1ccc(-c2cc(Cl)sc2COc2ccc(CCCO)c(F)c2F)cc1` [Cpd 14, 3-(4-[[5-chloro-3-(4-ethylphenyl)thiophen-2-yl]methoxy]-2,3-difluorophenyl)propan-1-ol], the EC50 was 163 nM at Human GPR120 short form and 265 nM in test [1].
